Reference: patent US20230074200A1 (priority 2021, published 2023)
Values joined by “and” are separate entries in the source; they are usually repeats but may differ in a detail not shown here. Identical values can stand only once. Like-named read-outs stand apart in the source and are kept apart here.

How the values were obtained:
[1] = rat, in vivo; for behavioral seizure (%) / gait change (%) / max Racine score / mortality (%) / salivation (%): sc
[2] = rat, in vivo, sc, 2 mg/kg
[3] = system: diaphragm motor endplates of BoNT/A intoxicated rats; settings: rat, in vivo
[4] = rat, in vivo
BoNT/A-intoxicated mice = settings: mouse, in vivo; cited from earlier work
[5] = system: isolated mouse diaphragms poisoned by multiple BoNT serotypes; settings: cited from earlier work
[6] = system: rats lethally intoxicated with 2.5 LD50 BoNT/A; settings: rat, in vivo
[7] = rat, in vivo; for behavioral seizure (%) / gait change (%) / max Racine score / mortality (%) / salivation (%): sc; remark: listed apart in the source
[8] = system: rats lethally challenged with 110 U/kg BoNT/A (2.5 LD50); settings: rat, in vivo

SMILES: Nc1ccncc1N [3,4-DAP, 3,4-diaminopyridine]
- physiological indicators of acute neurological toxicity ([1]; 2 mg/kg): did not elicit physiological indicators of acute neurological toxicity
- physiological indicators of acute neurological toxicity ([1]; 8 mg/kg): did not elicit physiological indicators of acute neurological toxicity
- behavioral seizure (%) ([1]; 1 mg/kg): 0, 0%
- gait change (%) ([1]; 1 mg/kg): 0%
- max Racine score ([1]; 1 mg/kg): 0, 0
- mortality (%) ([1]; 1 mg/kg): 0%
- salivation (%) ([1]; 1 mg/kg): 0%
- behavioral seizure (%) ([1]; 2 mg/kg): 0, 0%
- gait change (%) ([1]; 2 mg/kg): 0%
- max Racine score ([1]; 2 mg/kg): 0, 0
- mortality (%) ([1]; 2 mg/kg): 0%
- salivation (%) ([1]; 2 mg/kg): 0%
- behavioral seizure (%) ([1]; 8 mg/kg): 0, 0%
- gait change (%) ([1]; 8 mg/kg): 0%
- max Racine score ([1]; 8 mg/kg): 0, 0
- mortality (%) ([1]; 8 mg/kg): 0%
- salivation (%) ([1]; 8 mg/kg): 0%
- behavioral seizure (%) ([1]; 16 mg/kg): 0, 0%
- gait change (%) ([1]; 16 mg/kg): 50%
- max Racine score ([1]; 16 mg/kg): 0, 0
- mortality (%) ([1]; 16 mg/kg): 0%
- salivation (%) ([1]; 16 mg/kg): 25%
- VO2 [2]: transient increases
- respiratory rate [2]: transient increases
- tidal volume [2]: transient increases
- mean EPP success rate ([3]; 0.98 mg/kg): 75.4±3.5%
- mean EPP success rate ([3]; 1.44 mg/kg): 60.5±5.3% and 79.7±2.5%
- relationship between infusion dose rate and CSS (serum) [4]: linearly related to infusion dose
- respiratory and skeletal muscle weakness (BoNT/A-intoxicated mice): reversed respiratory and skeletal muscle weakness
- respiratory function and survival (BoNT/A-intoxicated mice): improve respiratory function and prolong survival
- muscle paralysis [5]: reverse muscle paralysis
- functional toxicity or loss of efficacy throughout the infusion period [6]: no evidence of functional toxicity or loss of efficacy
- symptomatic rebound following cessation of infusion [6]: without symptomatic rebound
- time by which all rats were deceased following cessation of infusion [6]: ≤ 12 h
- time by which toxic signs resolved [6]: ≤ 14 days
- time by which toxic signs stabilized [6]: ≤ 2 days
- time to worsening of toxic signs following cessation of infusion [6]: 3 to 6 h
- toxic signs compared to vehicle [6]: improved
- behavioral signs of neurological toxicity during infusion [7]: not observed
- behavioral seizure (%) ([7]; 0.36 mg/kg): 0, 0%
- gait change (%) ([7]; 0.36 mg/kg): 0%
- max Racine score ([7]; 0.36 mg/kg): 0, 0
- mortality (%) ([7]; 0.36 mg/kg): 0%
- salivation (%) ([7]; 0.36 mg/kg): 0%
- behavioral seizure (%) ([7]; 0.72 mg/kg): 0, 0%
- gait change (%) ([7]; 0.72 mg/kg): 0%
- max Racine score ([7]; 0.72 mg/kg): 0, 0
- mortality (%) ([7]; 0.72 mg/kg): 0%
- salivation (%) ([7]; 0.72 mg/kg): 0%
- behavioral seizure (%) ([7]; 1.44 mg/kg): 0, 0%
- gait change (%) ([7]; 1.44 mg/kg): 0%
- max Racine score ([7]; 1.44 mg/kg): 0, 0
- mortality (%) ([7]; 1.44 mg/kg): 0%
- salivation (%) ([7]; 1.44 mg/kg): 0%
- survival rate at the final injection [8]: 100%
- time to reduction of toxic signs compared to vehicle [8]: ≤ 30 min
- time after cessation of treatment at which toxic signs worsened ([8]; 2 mg/kg): approximately 1.5 h
- time of death after the final injection ([8]; 2 mg/kg): 2 to 4 h
